From patent US20050004186A1, “MEK inhibiting compounds” (Pfizer Inc, priority 2002, published 2005) come the findings set out here.

One data set concerns MEK. As to the kind of experiment: Cellular assay for measuring MEK inhibition, C26ELSA (pERK ELISA format in C26 cells). It is filed as cell-based, murine. Particulars: murine colon 26 (C26) carcinoma cells, one hour at 37 C. How it is done: Cellular Assay for Measuring MEK Inhibition
MEK inhibitors were evaluated by determining their ability to inhibit phosphorylation of MAP kinase (ERK) in murine colon 26 (C26) carcinoma cells. Since ERK1 and ERK2 represent the only known substrates for MEK1 and MEK2, the measurement of inhibition of ERK phosphorylation in cells provides direct read out of cellular MEK inhibition by the compounds of the invention. Detection of phosphorylation of ERK was carried out either by Western blot or ELISA format. Briefly, the assays involve treatment of exponentially growing C26 cells with varying concentrations of the test compound (or vehicle control) for one hour at 37≡ C. For Western blot assay, cells were rinsed free of compound/vehicle and lysed in a solution containing 70 mM NaCl, 50 mM glycerol phosphate, 10 mM HEPES, […], 1% Triton X-100, 1 mM Na3VO4, 100 μM PMSF, 10 μM leupeptin and 10 μM pepstatin. Supernatants were then subjected to gel electrophoresis and hybridized to a primary antibody recognizing dually phosphorylated ERK1 and ERK2. To evaluate total MAPK levels, blots were subsequently ‘stripped’ and re-probed with a 1:1 mixture of polyclonal antibodies recognizing unphosphorylated ERK1 and ERK2. For pERK ELISA assay, pERK TiterZyme Enzyme immunometric Assay kits were acquired from Assay Designs, Inc (Ann Arbor, Mich.). Briefly, cells were harvested in lysis solution containing 50 mM β-glycerophosphate, 10 mM HEPES, pH7.4, 70 mM NaCl, 2 mM EDTA and 1% SDS and protein lysates were diluted 1:15 with supplied Assay buffer prior to the execution of the assay. The subsequent steps were carried out essentially as recommended by the manufacturer.

By melting point is commonly meant the temperature of the solid-liquid transition. Usually IC50 stands for the concentration that inhibits the measured activity by half. In the case of `OC[C@H](O)CNc1nnc(-c2ccc(F)c(F)c2Nc2ccc(I)cc2F)o1` [Example 150, 3-{5-[3,4-Difluoro-2-(2-fluoro-4-iodo-phenylamino)-phenyl]-[1,3,4]oxadiazol-2-ylamino}-propane-1,2 (R)-diol], the melting point lay in the range of 174 to 176 °C. For the same molecule, the IC50 in the data set on MEK stood at 92 nM.

`CCc1ccc(Nc2c(-c3nnc(NC[C@@H](O)CO)o3)ccc(F)c2F)c(F)c1` [Example 152, 3-{5-[2-(4-Ethyl-2-fluoro-phenylamino)-3,4-difluoro-phenyl]-[1,3,4]oxadiazol-2-ylamino}-propane-1,2(R)-diol]: the melting point was 150 to 152 °C (dec.). Moreover, 2400 nM corresponded to half-maximal inhibition in the data set on MEK (IC50).

In the case of `OCC(CO)Nc1nnc(-c2ccc(F)c(F)c2Nc2ccc(I)cc2F)o1` [Example 154, 2-{5-[3,4-Difluoro-2-(2-fluoro-4-iodo-phenylamino)-phenyl]-[1,3,4]oxadiazol-2-ylamino}-propane-1,3-diol], the melting point was 110 to 114 °C (dec.). Besides, half-maximal inhibition in the data set on MEK (IC50) required 110 nM.

Regarding `C=Cc1ccc(Nc2c(-c3nnc(NCCN4CCOCC4)o3)ccc(F)c2F)c(F)c1` [Example 156, {5-[3,4-Difluoro-2-(2-fluoro-4-vinyl-phenylamino)-phenyl]-[1,3,4]oxadiazol-2-yl}-(2-morpholin-4-yl-ethyl)-amine], the melting point is 174 to 177 °C. The molecule also had an IC50 in the data set with MEK of 710 nM.
